# Measured values from ChEMBL document CHEMBL1133912, “Coupling of the antennapedia third helix to a potent antagonist of the p53/hdm2 protein-protein interaction” (Bioorg Med Chem Lett, 2001).
# Square brackets hold non-standard residues; d marks the D form. Peptide text beside a SMILES is read from it. Trp(6-Cl) = N[C@@H](Cc1c[nH]c2cc(Cl)ccc12)C(=O)O; Pmp = N[C@@H](Cc1ccc(CP(=O)(O)O)cc1)C(=O)O; Ac3c = NC1(C(=O)O)CC1; Aib = CC(C)(N)C(=O)O
# Test: In vitro inhibition of binding towards of human wild-type p53 to GST-hdm2
row,SMILES,IC50 [nM]
1,CSCC[C@H](NC(=O)[C@H](Cc1ccccc1)NC(C)=O)C(=O)NC(C)(C)C(=O)N[C@@H](Cc1ccc(CP(=O)(O)O)cc1)C(=O)N[C@@H](C)C(=O)N[C@@H](CCC(=O)O)C(=O)NC1(C(=O)N[C@@H](CC(C)C)C(N)=O)CC1 (Ac-FM[Aib][Pmp]AE[Ac3c]L-NH2),> 2000
2,CSCC[C@H](NC(=O)[C@H](Cc1ccccc1)NC(C)=O)C(=O)NC(C)(C)C(=O)N[C@@H](Cc1ccc(CP(=O)(O)O)cc1)C(=O)N[C@@H](Cc1c[nH]c2cc(Cl)ccc12)C(=O)N[C@@H](CCC(=O)O)C(=O)NC1(C(=O)N[C@@H](CC(C)C)C(N)=O)CC1 (Ac-FM[Aib][Pmp][Trp(6-Cl)]E[Ac3c]L-NH2),5
